Experimental data published in publication PMC2949283 (The Biochemical journal, 2009).
Where two headings read alike, the source gives them in different places.

Assays:
Assay type in all cases: biochemical
F295A/F297A HuAChE = F295A/F297A HuAChE (Homo sapiens, UniProt P22303, F326A/F328A); assay: HuAChE inhibition kinetics
F297A HuAChE = F297A HuAChE (Homo sapiens, UniProt P22303, F328A); assay: HuAChE inhibition kinetics
F338A HuAChE = F338A HuAChE (Homo sapiens, UniProt P22303, F369A); assay: HuAChE inhibition kinetics
Chain of F338A HuAChE (P22303 32-614 F369A): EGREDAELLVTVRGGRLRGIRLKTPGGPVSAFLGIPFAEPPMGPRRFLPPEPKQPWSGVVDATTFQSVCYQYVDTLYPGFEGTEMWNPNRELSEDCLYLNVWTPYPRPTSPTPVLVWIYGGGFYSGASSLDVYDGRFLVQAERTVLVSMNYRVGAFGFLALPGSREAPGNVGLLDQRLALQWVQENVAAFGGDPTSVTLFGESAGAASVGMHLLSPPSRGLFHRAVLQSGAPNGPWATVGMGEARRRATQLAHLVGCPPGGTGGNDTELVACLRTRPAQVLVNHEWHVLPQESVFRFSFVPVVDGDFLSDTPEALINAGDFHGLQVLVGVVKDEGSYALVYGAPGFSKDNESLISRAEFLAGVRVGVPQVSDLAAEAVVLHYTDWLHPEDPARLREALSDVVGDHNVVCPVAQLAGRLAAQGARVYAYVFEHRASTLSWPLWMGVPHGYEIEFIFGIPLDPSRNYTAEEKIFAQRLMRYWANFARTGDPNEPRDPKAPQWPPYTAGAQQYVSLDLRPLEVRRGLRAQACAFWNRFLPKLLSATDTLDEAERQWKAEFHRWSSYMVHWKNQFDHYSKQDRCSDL

Wild Type HuAChE = Wild Type HuAChE (Homo sapiens, UniProt P22303); assay: HuAChE inhibition kinetics
Chain of Wild Type HuAChE (P22303 32-614): as the sequence (P22303 32-614 F369A) above, with A338F counted along it

F295A HuAChE = F295A HuAChE (Homo sapiens, UniProt P22303, F326A); assay: HuAChE inhibition kinetics
Chain of F295A HuAChE (P22303 32-614 F326A): as the sequence (P22303 32-614 F369A) above, with F295A, A338F counted along it

W86A HuAChE = W86A HuAChE (Homo sapiens, UniProt P22303, W117A); assay: HuAChE inhibition kinetics
Chain of W86A HuAChE (P22303 32-614 W117A): as the sequence (P22303 32-614 F369A) above, with W86A, A338F counted along it

W86A/Y337A HuAChE = W86A/Y337A HuAChE (Homo sapiens, UniProt P22303, W117A/Y368A); assay: biochemical
Chain of W86A/Y337A HuAChE (P22303 32-614 W117A/Y368A): as the sequence (P22303 32-614 F369A) above, with W86A, Y337A, A338F counted along it

Y337A HuAChE = Y337A HuAChE (Homo sapiens, UniProt P22303, Y368A); assay: HuAChE inhibition kinetics
Chain of Y337A HuAChE (P22303 32-614 Y368A): as the sequence (P22303 32-614 F369A) above, with Y337A, A338F counted along it

Y133A HuAChE = Y133A HuAChE (Homo sapiens, UniProt P22303, Y164A); assay: HuAChE inhibition kinetics; conditions: read-out: Kd, Michaelis complex (Eq. 1); Y133A HuAChE; NI = No inhibition between […]10^−6- […]10^−4M
Chain of Y133A HuAChE (P22303 32-614 Y164A): as the sequence (P22303 32-614 F369A) above, with Y133A, A338F counted along it

HuBChE-Wild Type = HuBChE-Wild Type (Homo sapiens, UniProt P06276); assay: HuBChE inhibition kinetics
Chain of HuBChE-Wild Type (P06276 29-602): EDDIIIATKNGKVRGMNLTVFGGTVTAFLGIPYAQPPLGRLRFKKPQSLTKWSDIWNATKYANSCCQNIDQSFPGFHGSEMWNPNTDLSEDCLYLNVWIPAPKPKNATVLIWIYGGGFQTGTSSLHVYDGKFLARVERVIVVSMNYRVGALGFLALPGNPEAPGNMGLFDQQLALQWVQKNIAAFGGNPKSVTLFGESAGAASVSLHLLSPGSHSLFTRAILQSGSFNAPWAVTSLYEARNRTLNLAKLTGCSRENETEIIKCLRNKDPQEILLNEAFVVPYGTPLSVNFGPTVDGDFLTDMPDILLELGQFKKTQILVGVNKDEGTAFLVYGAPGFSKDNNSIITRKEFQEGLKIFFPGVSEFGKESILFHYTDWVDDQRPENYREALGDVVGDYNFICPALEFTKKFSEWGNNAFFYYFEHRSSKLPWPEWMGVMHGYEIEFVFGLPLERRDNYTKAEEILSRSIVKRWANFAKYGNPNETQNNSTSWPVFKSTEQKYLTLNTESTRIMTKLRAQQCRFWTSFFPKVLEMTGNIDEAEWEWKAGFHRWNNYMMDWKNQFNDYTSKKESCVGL

Chain of F297A HuAChE (P22303 32-614 F328A): as the sequence (P22303 32-614 F369A) above, with F297A, A338F counted along it
Chain of F295A/F297A HuAChE (P22303 32-614 F326A/F328A): as the sequence (P22303 32-614 F369A) above, with F295A, F297A, A338F counted along it

Work on `CNC(=O)Oc1ccc2c(c1)[C@]1(C)CCO[C@@H]1N2C` [(−)-Physovenine, physovenine] yielded a Kd (F295A/F297A HuAChE; Kd, Michaelis complex (Eq. 1)) of 230 ± 70 nM, a Kd (F297A HuAChE) of 630 ± 40 nM and a Kd (F338A HuAChE) of 2560 ± 600 nM. For the same compound, the Kd (Wild Type HuAChE) was 430 ± 90 nM, the Kd (F295A HuAChE) was 100 ± 27 nM and the Kd (W86A HuAChE) was 120000 ± 24000 nM. The Kd (W86A/Y337A HuAChE) was 413000 ± 85000 nM, the Kd (Y337A HuAChE) was 850 ± 200 nM and the Kd (Y133A HuAChE) was > 250000 nM.

With `CC(C)c1ccc(NC(=O)Oc2ccc3c(c2)[C@]2(C)CCN(C)[C@@H]2N3C)cc1` [(−)Cymserine, cymserine] the mode of inhibition (Wild Type HuAChE; HuAChE enzymes) was “noncovalent inhibitor”.

With `CCN(C)C(=O)Oc1cccc([C@H](C)N(C)C)c1` [Rivastigmine, rivastigmine] the “k2 higher than for HuAChE” value (HuBChE-Wild Type; HuBChE vs HuAChE) was 9 fold, the “reactivity toward HuBChE higher than toward HuAChE” value (HuBChE-Wild Type; HuBChE vs HuAChE) was 15 fold and the “k2, carbamylation rate constant” value (HuBChE-Wild Type; HuBChE-Wild Type) was 0.90 ± 0.03 min⁻¹.

Compound physovenine [(+)-Physovenine] has a Kd (F295A/F297A HuAChE; read-out: Kd, Michaelis complex (Eq. 1)) of 280 ± 80 nM, a Kd (F297A HuAChE; read-out: Kd, Michaelis complex (Eq. 1), F297A HuAChE) of 1000 ± 350 nM and a Kd (F338A HuAChE; read-out: Kd, Michaelis complex (Eq. 1), F338A HuAChE) of 700 ± 100 nM. For the same compound, the Kd (Wild Type HuAChE; read-out: Kd, Michaelis complex (Eq. 1), Wild Type HuAChE) was 1400 ± 130 nM, the Kd (F295A HuAChE; read-out: Kd, Michaelis complex (Eq. 1), F295A HuAChE) was 90 ± 25 nM and the Kd (W86A HuAChE; read-out: Kd, Michaelis complex (Eq. 1), W86A HuAChE) was 280000 ± 28500 nM. For the same compound, the Kd (W86A/Y337A HuAChE; read-out: Kd, Michaelis complex (Eq. 1), […], Table 3: Activity measured with TB) was 281000 ± 45000 nM, the Kd (Y337A HuAChE; read-out: Kd, Michaelis complex (Eq. 1), Y337A HuAChE) was 15000 ± 1600 nM and the Kd (Y133A HuAChE) was > 250000 nM.
